Test results published in patent publication EP4722212A1, “NOVEL COMPOUND FOR INHIBITING PROTEIN KINASES AND PHARMACEUTICAL COMPOSITION COMPRISING SAME” (Magicbullettherapeutics Co., Ltd., priority 2023, dated 2024).
Read-outs that look alike come from different tables or passages of the source.

Experiments:
Assay in all cases: Kinase panel
Assay type in all cases: biochemical
PKCTHETA = PKCTHETA (Homo sapiens, UniProt Q04759); conditions: read-out: residual enzyme activity
How it was run: (§1)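 Biochemical full-panel kinase assay with compounds tested at a single concentration of 1 µM. Values are residual enzyme activity. Kinases were flagged when residual activity was 40% or less, i.e. inhibition of 60% or more.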

FGFR4 = FGFR4 (Homo sapiens, UniProt P22455); conditions: FGFR4, 1 µM; read-out: residual enzyme activity
How it was run: as §1

TXK = TXK (Homo sapiens, UniProt P42681); conditions: read-out: residual enzyme activity
How it was run: as §1

SYK = SYK (Homo sapiens, UniProt P43405); conditions: read-out: residual enzyme activity
How it was run: as §1

FGFR1 = FGFR1 (Homo sapiens, UniProt P11362); conditions: FGFR1, 1 µM; read-out: residual enzyme activity
How it was run: as §1

MEK5 = MEK5 (Homo sapiens, UniProt Q13163); conditions: MEK5, 1 µM; read-out: residual enzyme activity
How it was run: as §1

SRMS = SRMS (Homo sapiens, UniProt Q9H3Y6); conditions: read-out: residual enzyme activity
How it was run: as §1

AXL = AXL (Homo sapiens, UniProt P30530); conditions: read-out: residual enzyme activity
How it was run: as §1

SGK1 = SGK1 (Homo sapiens, UniProt O00141); conditions: SGK1, 1 µM; read-out: residual enzyme activity
How it was run: as §1

SNARK/NUAK2 = SNARK/NUAK2 (Homo sapiens, UniProt Q9H093); conditions: SNARK/NUAK2, 1 µM; read-out: residual enzyme activity
How it was run: as §1

CAMK1D = CAMK1D (Homo sapiens, UniProt Q8IU85); conditions: read-out: residual enzyme activity
How it was run: as §1

MARK4 = MARK4 (Homo sapiens, UniProt Q96L34); conditions: MARK4, 1 µM; read-out: residual enzyme activity
How it was run: as §1

CDK14/CYCLIN Y (PFTK1) = CDK14/CYCLIN Y (PFTK1) (Homo sapiens, UniProt O94921); conditions: read-out: residual enzyme activity
How it was run: as §1

PKCMU/PRKD1 = PKCMU/PRKD1 (Homo sapiens, UniProt Q15139); conditions: PKCmu/PRKD1, 1 µM; read-out: residual enzyme activity
How it was run: as §1

PKCEPSILON = PKCEPSILON (Homo sapiens, UniProt Q02156); conditions: read-out: residual enzyme activity
How it was run: as §1

COT1/MAP3K8 = COT1/MAP3K8 (Homo sapiens, UniProt P41279); conditions: COT1/MAP3K8, 1 µM; read-out: residual enzyme activity
How it was run: as §1

SGK2 = SGK2 (Homo sapiens, UniProt Q9HBY8); conditions: SGK2, 1 µM; read-out: residual enzyme activity
How it was run: as §1

AURORA B = AURORA B (Homo sapiens, UniProt Q96GD4); conditions: read-out: residual enzyme activity
How it was run: as §1

ZAP70 = ZAP70 (Homo sapiens, UniProt P43403); conditions: ZAP70, 1 µM; read-out: residual enzyme activity
How it was run: as §1

MAST3 = MAST3 (Homo sapiens, UniProt O60307); conditions: MAST3, 1 µM; read-out: residual enzyme activity
How it was run: as §1

PIM1 = PIM1 (Homo sapiens, UniProt P11309); conditions: PIM1, 1 µM; read-out: residual enzyme activity
How it was run: as §1

DYRK1/DYRK1A = DYRK1/DYRK1A (Homo sapiens, UniProt Q13627); conditions: read-out: residual enzyme activity
How it was run: as §1

FLT4/VEGFR3 = FLT4/VEGFR3 (Homo sapiens, UniProt P35916); conditions: FLT4/VEGFR3, 1 µM; read-out: residual enzyme activity
How it was run: as §1

AURORA C = AURORA C (Homo sapiens, UniProt Q9UQB9); conditions: read-out: residual enzyme activity
How it was run: as §1

PLK4/SAK = PLK4/SAK (Homo sapiens, UniProt O00444); conditions: read-out: residual enzyme activity
How it was run: as §1

ALK5/TGFBR1 = ALK5/TGFBR1 (Homo sapiens, UniProt P36897); conditions: ALK5/TGFBR1, 1 µM; read-out: residual enzyme activity
How it was run: as §1

PAK5 = PAK5 (Homo sapiens, UniProt Q9P286); conditions: PAK5, 1 µM; read-out: residual enzyme activity
How it was run: as §1

FAK/PTK2 = FAK/PTK2 (Homo sapiens, UniProt Q05397); conditions: FAK/PTK2, 1 µM; read-out: residual enzyme activity
How it was run: as §1

DAPK1 = DAPK1 (Homo sapiens, UniProt P53355); conditions: DAPK1, 1 µM; read-out: residual enzyme activity
How it was run: as §1

BTK = BTK (Homo sapiens, UniProt Q06187); conditions: read-out: residual enzyme activity
How it was run: as §1

EPHA6 = EPHA6 (Homo sapiens, UniProt Q9UF33); conditions: EPHA6, 1 µM; read-out: residual enzyme activity
How it was run: as §1

SSTK/TSSK6 = SSTK/TSSK6 (Homo sapiens, UniProt Q9BXA6); conditions: SSTK/TSSK6, 1 µM; read-out: residual enzyme activity
How it was run: as §1

DRAK1/STK17A = DRAK1/STK17A (Homo sapiens, UniProt Q9UEE5); conditions: read-out: residual enzyme activity
How it was run: as §1

CTK/MATK = CTK/MATK (Homo sapiens, UniProt P42679); conditions: read-out: residual enzyme activity
How it was run: as §1

Chain of SNARK/NUAK2 (Q9H093 whole entry): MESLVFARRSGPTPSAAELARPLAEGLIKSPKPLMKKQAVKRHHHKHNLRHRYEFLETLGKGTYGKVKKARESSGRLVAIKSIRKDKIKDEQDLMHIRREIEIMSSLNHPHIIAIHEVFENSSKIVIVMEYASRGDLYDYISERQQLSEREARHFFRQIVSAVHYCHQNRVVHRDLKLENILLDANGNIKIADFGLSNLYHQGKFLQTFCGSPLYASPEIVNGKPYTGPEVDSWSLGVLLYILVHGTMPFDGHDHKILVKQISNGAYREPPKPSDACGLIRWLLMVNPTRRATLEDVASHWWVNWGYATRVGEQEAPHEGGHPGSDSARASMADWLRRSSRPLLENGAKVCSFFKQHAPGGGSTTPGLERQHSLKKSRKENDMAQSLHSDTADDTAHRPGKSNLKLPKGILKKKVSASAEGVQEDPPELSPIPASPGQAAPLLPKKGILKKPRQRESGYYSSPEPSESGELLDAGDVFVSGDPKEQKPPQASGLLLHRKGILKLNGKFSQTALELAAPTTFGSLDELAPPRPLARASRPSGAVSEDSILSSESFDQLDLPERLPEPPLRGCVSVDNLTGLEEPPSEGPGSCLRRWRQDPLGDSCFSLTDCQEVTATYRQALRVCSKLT
Chain of SGK2 (Q9HBY8 whole entry, species assumed): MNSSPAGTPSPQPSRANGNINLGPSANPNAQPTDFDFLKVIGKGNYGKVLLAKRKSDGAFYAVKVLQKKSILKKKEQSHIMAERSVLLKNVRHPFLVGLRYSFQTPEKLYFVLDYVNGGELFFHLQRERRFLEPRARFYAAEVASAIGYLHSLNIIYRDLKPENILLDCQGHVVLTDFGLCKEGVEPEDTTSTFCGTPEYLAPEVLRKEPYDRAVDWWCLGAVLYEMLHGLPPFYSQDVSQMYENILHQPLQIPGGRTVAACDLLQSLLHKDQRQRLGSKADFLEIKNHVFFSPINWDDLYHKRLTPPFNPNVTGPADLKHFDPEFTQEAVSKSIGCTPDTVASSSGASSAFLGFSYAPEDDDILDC
Chain of SRMS (Q9H3Y6 whole entry, species assumed): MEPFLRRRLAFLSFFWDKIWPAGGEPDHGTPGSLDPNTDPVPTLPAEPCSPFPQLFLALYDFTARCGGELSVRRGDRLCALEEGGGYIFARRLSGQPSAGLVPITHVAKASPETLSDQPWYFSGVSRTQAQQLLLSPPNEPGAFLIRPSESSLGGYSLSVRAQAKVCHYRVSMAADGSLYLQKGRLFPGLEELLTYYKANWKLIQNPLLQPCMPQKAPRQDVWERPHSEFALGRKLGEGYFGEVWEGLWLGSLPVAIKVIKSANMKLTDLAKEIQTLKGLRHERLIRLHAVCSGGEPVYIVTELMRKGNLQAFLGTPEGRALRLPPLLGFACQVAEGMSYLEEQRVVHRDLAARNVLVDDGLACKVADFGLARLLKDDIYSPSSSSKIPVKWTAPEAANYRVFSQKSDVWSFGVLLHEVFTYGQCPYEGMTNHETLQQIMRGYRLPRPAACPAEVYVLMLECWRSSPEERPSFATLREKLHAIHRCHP
Chain of EPHA6 (Q9UF33 23-1036, species assumed): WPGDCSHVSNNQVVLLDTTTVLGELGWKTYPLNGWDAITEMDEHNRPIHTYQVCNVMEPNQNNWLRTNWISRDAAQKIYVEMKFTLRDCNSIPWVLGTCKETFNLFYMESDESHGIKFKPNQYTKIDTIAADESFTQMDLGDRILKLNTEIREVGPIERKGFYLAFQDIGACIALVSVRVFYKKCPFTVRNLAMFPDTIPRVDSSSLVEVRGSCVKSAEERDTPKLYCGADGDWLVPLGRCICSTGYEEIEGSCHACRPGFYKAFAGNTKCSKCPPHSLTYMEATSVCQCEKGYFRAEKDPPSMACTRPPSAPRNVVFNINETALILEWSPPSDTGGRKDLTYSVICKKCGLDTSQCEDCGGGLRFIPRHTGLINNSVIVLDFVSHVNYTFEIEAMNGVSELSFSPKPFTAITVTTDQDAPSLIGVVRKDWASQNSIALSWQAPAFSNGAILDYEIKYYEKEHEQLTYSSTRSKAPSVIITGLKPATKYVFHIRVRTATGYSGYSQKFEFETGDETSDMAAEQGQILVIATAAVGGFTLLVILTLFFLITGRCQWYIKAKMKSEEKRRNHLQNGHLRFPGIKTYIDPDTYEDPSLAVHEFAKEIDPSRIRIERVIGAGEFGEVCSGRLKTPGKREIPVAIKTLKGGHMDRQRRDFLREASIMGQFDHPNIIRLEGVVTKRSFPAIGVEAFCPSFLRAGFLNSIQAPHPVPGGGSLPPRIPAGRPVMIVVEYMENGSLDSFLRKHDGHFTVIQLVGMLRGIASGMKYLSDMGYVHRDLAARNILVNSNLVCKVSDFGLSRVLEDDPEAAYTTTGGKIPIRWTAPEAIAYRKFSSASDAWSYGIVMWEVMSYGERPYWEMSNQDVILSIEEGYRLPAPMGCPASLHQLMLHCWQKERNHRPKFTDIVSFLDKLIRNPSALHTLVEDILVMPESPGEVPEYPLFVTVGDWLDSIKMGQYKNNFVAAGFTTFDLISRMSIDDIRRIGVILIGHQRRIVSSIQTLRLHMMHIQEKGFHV
Chain of FGFR1 (P11362 22-822, species assumed): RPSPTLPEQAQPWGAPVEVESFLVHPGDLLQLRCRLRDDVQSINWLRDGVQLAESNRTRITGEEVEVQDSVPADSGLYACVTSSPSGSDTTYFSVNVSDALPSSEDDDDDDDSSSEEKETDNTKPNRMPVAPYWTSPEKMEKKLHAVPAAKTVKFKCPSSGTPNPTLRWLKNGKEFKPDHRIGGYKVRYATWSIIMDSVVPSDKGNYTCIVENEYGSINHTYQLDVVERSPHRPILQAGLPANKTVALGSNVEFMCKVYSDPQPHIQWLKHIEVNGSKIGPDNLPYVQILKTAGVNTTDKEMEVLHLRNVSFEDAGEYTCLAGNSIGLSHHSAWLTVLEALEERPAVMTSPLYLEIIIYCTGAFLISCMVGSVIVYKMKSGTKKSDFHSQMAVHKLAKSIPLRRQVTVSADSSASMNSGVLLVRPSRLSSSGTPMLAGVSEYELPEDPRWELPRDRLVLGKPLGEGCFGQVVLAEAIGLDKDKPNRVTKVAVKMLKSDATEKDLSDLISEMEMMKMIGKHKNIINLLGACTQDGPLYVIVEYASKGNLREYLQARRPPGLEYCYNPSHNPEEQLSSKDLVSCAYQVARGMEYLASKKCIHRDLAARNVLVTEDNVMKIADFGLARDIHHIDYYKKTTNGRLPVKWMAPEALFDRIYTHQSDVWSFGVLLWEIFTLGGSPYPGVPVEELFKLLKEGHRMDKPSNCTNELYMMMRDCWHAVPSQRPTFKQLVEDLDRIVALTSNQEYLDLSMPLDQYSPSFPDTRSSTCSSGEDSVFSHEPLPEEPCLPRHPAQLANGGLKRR
Chain of CDK14/CYCLIN Y (PFTK1) (O94921 whole entry, species assumed): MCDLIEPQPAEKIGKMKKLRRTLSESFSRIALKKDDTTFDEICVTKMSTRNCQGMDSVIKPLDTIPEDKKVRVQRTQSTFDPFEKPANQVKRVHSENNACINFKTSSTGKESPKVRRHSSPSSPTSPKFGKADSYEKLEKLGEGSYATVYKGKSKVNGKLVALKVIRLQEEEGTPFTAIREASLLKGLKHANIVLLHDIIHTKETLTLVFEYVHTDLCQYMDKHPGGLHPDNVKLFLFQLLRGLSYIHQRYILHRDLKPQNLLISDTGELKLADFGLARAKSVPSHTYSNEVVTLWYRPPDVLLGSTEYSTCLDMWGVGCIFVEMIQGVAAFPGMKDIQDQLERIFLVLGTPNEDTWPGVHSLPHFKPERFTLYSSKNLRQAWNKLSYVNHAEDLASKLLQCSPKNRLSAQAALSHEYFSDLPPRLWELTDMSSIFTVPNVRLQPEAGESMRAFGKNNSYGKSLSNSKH
Chain of CDK14/CYCLIN Y (PFTK1) (Q8ND76 whole entry partner, species assumed): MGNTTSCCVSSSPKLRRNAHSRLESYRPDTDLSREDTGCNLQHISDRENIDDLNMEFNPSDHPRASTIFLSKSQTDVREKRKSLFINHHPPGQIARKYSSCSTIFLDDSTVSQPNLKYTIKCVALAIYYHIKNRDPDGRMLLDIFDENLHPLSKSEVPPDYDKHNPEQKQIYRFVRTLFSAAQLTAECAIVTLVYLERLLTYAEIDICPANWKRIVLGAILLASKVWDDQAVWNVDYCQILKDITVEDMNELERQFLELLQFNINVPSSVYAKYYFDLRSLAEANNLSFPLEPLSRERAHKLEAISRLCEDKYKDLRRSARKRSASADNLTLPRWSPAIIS
Chain of TXK (P42681 whole entry, species assumed): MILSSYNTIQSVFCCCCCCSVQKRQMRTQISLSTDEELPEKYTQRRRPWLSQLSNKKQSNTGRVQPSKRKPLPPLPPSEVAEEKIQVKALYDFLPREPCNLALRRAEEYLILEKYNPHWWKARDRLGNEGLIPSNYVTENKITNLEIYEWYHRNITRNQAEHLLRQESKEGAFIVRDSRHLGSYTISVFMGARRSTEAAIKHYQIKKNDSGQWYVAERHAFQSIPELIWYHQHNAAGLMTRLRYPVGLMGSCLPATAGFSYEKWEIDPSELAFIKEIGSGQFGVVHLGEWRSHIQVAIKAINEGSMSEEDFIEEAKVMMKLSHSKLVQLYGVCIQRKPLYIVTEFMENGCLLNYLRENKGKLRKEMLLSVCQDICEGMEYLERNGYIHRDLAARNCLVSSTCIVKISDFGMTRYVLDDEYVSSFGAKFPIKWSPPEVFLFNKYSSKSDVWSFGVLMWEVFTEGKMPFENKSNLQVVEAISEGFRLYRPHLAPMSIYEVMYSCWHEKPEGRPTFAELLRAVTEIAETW
Chain of PIM1 (P11309 whole entry, species assumed): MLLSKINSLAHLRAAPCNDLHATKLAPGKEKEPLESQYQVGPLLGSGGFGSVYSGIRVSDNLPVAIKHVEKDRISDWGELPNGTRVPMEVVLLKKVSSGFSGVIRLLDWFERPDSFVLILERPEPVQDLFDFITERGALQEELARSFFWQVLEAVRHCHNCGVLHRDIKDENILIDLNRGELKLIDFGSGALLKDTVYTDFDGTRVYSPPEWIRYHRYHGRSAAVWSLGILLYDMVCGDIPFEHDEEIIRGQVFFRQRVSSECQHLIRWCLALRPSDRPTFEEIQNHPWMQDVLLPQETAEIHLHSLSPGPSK

Row | Structure (SMILES) | remaining activity at 1 µM (PKCTHETA) [%] | remaining activity at 1 µM (FGFR4) [%] | remaining activity at 1 µM (TXK) [%] | remaining activity at 1 µM (SYK) [%] | remaining activity at 1 µM (FGFR1) [%] | remaining activity at 1 µM (MEK5) [%] | remaining activity at 1 µM (SRMS) [%] | remaining activity at 1 µM (AXL) [%] | remaining activity at 1 µM (SGK1) [%] | remaining activity at 1 µM (SNARK/NUAK2) [%] | remaining activity at 1 µM (MARK4) [%] | remaining activity at 1 µM (CDK14/CYCLIN Y (PFTK1)) [%] | remaining activity at 1 µM (PKCMU/PRKD1) [%] | remaining activity at 1 µM (PKCEPSILON) [%] | remaining activity at 1 µM (COT1/MAP3K8) [%] | remaining activity at 1 µM (SGK2) [%] | remaining activity at 1 µM (AURORA B) [%] | remaining activity at 1 µM (ZAP70) [%] | remaining activity at 1 µM (MAST3) [%] | remaining activity at 1 µM (PIM1) [%] | further results
1 | Cc1cn(-c2cc(C(=O)Nc3ccc(C)c(N4Cc5cnc(NC6CC6)nc5C5(CC5)C4=O)c3)cc(C(F)(F)F)c2)cn1 [Compound 8, N-(3-(2'-(cyclopropylamino)-7'-oxo-5'H-spiro[cyclopropane-1,8'-pyrido[4,3-d]pyrimidine]-6'(7'H)-yl)-4-methylphenyl)-3-(4-methyl-1H-imidazol-1-yl)-5-(trifluoromethyl)benzamide] | > 40 | ≤ 40 | ≤ 40 | > 40 | ≤ 40 | ≤ 40 | ≤ 40 | > 40 | > 40 | > 40 | > 40 | > 40 | > 40 | > 40 | > 40 | > 40 | > 40 | > 40 | > 40 | > 40 | remaining activity at 1 µM (CAMK1D; CAMK1D): > 40%; remaining activity at 1 µM (DYRK1/DYRK1A): > 40%; remaining activity at 1 µM (FLT4/VEGFR3): ≤ 40%; remaining activity at 1 µM (AURORA C): > 40%; remaining activity at 1 µM (PLK4/SAK): > 40%; remaining activity at 1 µM (ALK5/TGFBR1): > 40%; remaining activity at 1 µM (PAK5): > 40%; remaining activity at 1 µM (FAK/PTK2): ≤ 40%; remaining activity at 1 µM (DAPK1): > 40%; remaining activity at 1 µM (BTK): ≤ 40%; remaining activity at 1 µM (EPHA6): ≤ 40%; remaining activity at 1 µM (SSTK/TSSK6): > 40%; remaining activity at 1 µM (DRAK1/STK17A): > 40%; remaining activity at 1 µM (CTK/MATK): > 40%
2 | Cc1ccc(Nc2ncc3c(n2)C2(CC2)C(=O)N(c2cc(NC(=O)c4cccc(C(F)(F)F)c4)ccc2C)C3)cn1 [Compound 51, N-(4-methyl-3-(2'-((6-methylpyridin-3-yl)amino)-7'-oxo-5'H-spiro[cyclopropane-1,8'-pyrido[4,3-d]pyrimidine]-6'(7'H)-yl)phenyl)-3-(trifluoromethyl)benzamide] | > 40 | ≤ 40 | ≤ 40 | ≤ 40 | ≤ 40 | ≤ 40 | ≤ 40 | > 40 | > 40 | > 40 | > 40 | > 40 | > 40 | > 40 | > 40 | > 40 | > 40 | > 40 | > 40 | > 40 | remaining activity at 1 µM (CAMK1D; CAMK1d): > 40%; remaining activity at 1 µM (DYRK1/DYRK1A): > 40%; remaining activity at 1 µM (FLT4/VEGFR3): ≤ 40%; remaining activity at 1 µM (AURORA C): > 40%; remaining activity at 1 µM (PLK4/SAK): > 40%; remaining activity at 1 µM (ALK5/TGFBR1): > 40%; remaining activity at 1 µM (PAK5): > 40%; remaining activity at 1 µM (FAK/PTK2): ≤ 40%; remaining activity at 1 µM (DAPK1): > 40%; remaining activity at 1 µM (BTK): ≤ 40%; remaining activity at 1 µM (EPHA6): ≤ 40%; remaining activity at 1 µM (SSTK/TSSK6): > 40%; remaining activity at 1 µM (DRAK1/STK17A): > 40%; remaining activity at 1 µM (CTK/MATK): > 40%
